These results are taken from patent US20250275976A1, “Methods of Treating Neuroinflammatory Conditions” (Athira Pharma, Inc., priority 2022, published 2025).

“And” between values parts separate entries of the source, which are not always exact repeats. Equal entries are not always repeated. “Also recorded” adds a separate entry of the source. Where two headings read alike, the source gives them in different places. Square brackets hold non-standard residues; d marks the D form. Peptide text beside a SMILES is read from it. * marks the point of attachment. pY = N[CH](Cc1ccc(OP(=O)(O)O)cc1)C(=O)O; Hexanoyl = CCCCCC(=O)*; Ahx = NCCCCCC(=O)O

Test [1] concerns Rat primary cortical neuron cultures. Particulars: LPS 24 h.
Experimental: (§1) To assess the neuroprotective effect of compound treatment against inflammatory insult, primary cultured cortical neurons were subjected to lipopolysaccharide (LPS) treatment for 24h along with various compound doses of compounds of Formula (I) or Compound A19. […] Rat primary cortical neuron cultures were grown at 37° C., 5% C02 in Complete Neurobasal Medium supplemented with B27/GDNF/BDNF containing 10% FBS until maturity. 25 μl of culture volume were seeded in a 384-well plate at 5,000 cells/well, and treated with 1 μM, 100 nM, 10 nM, 1 nM, or 0.1 nM of test compound for 15 minutes. Cells were then subjected to 1 μM LPS challenge for 24 hours. Luminescence measurements to assess relative levels of ATP were performed on an Envision plate reader (Perkin Elmer). Data for DMSO control were set to 100% cell viability, and each group (n=4) were averaged and presented as mean±SEM.
The test system is the same in test [2]. In words: Neuroprotection of rat cortical neurons against LPS challenge (Cell Titer-Glo). The note with it: at at least one dose tested.
Experimental: as §1
The test system of another test is Prp-TDP43^A315T mice. In kind it is in vivo. Here is the method:
Extranuclear accumulation of TDP-43 protein is a pathological hallmark of a number of neurological diseases. […] Male Prp-TDP43^A315T mice (N=10 mice per group) at 3 weeks of age were administered daily treatments of test compounds. Compound A19 was administered via subcutaneous injection, and Compound 5a and Compound 6a were administered via oral gavage. After 2 months of treatment, plasma samples were collected for cytokine quantification. […] Plasma IL-6 and TNF-α cytokine expression levels were determined using the ELISA method. The submandibular vein was punctured with a lancet and a blood drop was collected directly on a microtube containing EDTA as anticoagulant. Samples were centrifuged for 15 minutes at 1000×g at 4° C. within 20 minutes of collection. 20 μl of plasma supernatant was stored at −20° C. before ELISA analysis.
Plasma was diluted at 1:10 in sterile PBS, and IL-6 and TNF-α quantification was performed in duplicate for each animal using 10 μl of sample per well in 96-well plates using the ELISA method (IL-6: Signa-Aldrich Cat #RAB0308, TNF-α: Sigma-Aldrich Cat #RAB0477). Statistical analysis was carried out by 2-way ANOVA with Dunnett's multiple comparisons post-test with compound-treated samples compared to vehicle-treated samples.

A further test concerns male CD-1 mice. In words: T-maze spontaneous alternation, LPS-induced cognitive deficit. The class given is in vivo, mouse. The note with it: for Spontaneous alternation (%) Mean: LPS 250 μg/kg i.p.; for Recovery (%): saline/vehicle = 100%, LPS/vehicle = 0%; for Reversal of LPS-induced cognitive deficit in T-maze (result in words): ANOVA, Fisher's PLSD, p<0.05, doses as in the value. The text has this:
Encephalitis refers to inflammation of the brain that may result in brain swelling fever, headache, confusion, and seizures. The source of neuroinflammation can vary widely, including due to viral, bacterial, parasitic, or fungal infection or due to autoimmune diseases. Lipopolysaccharide (LPS) is a bacterial endotoxin that induces an intense neuroinflammatory reaction and has been associated with cognitive decline. The ability of Compound A19 to reverse cognitive decline induced by LPS in a mouse model of encephalitis was studied using a T-maze assay. In a separate substantially similar assay, Compounds 1a and 5a were also assessed.
Spontaneous and continuous alternation is the innate tendency of rodents to alternate free choices in a T-maze (T-CAT) over a series of successive runs. This sequential procedure relies on working memory and is sensitive to various pharmacological manipulations affecting memory processes. The present studies were conducted to evaluate the abilities of Compound A19, Compound 1a and Compound 5a to reverse LPS-induced cognitive deficit in the T-maze assay.
Compound A19 was dissolved in 0.9% NaCl (saline) and vortexed periodically until complete dissolution and with the pH adjusted between 7.4 and 7.8. Compound A19 was used in concentrations of 0.125, 0.1, 0.05, 0.025 and 0.0125 mg/ml which when given in a volume of 10 ml/kg result in doses of 1.25, 1, 0.5, 0.25 and 0.125 mg/kg, respectively. Compound 1a was dissolved at 160 mg/ml in 100% DMSO and vortexed until complete dissolution. Then the above stock solution was diluted in 20% PEG-400 and 78% 0.9% NaCl, whereby the stock solution comprised 2% of the final solution. Compound 1a was used in concentrations of 0.05, 0.2, 0.8, 1.6 and 3.2 mg/ml which when given in a volume of 10 ml/kg result in doses of 0.5, 2, 8, 16 and 32 mg/kg, respectively. Compound 5a was dissolved at 100 mg/ml in 100% DMSO and vortexed until complete dissolution. Then the above stock solution was diluted in 20% PEG-400 and 78% 0.9% NaCl, whereby the stock solution comprised 2% of the final solution. Compound 5a was used in concentrations of 0.125, 0.25, 0.5, 1 and 2 mg/ml which when given in a volume of 10 ml/kg result in doses of 1.25, 2.5, 5, 10 and 20 mg/kg, respectively.
Memantine was dissolved in saline. Memantine was used in concentration of 0.1 and 0.01 mg/ml, which when given in a volume of 10 ml/kg result in a dose of 1 and 0.1 mg/kg, respectively. Memantine is approved for symptomatic treatment of Alzheimer's disease was used as a reference compound.
LPS was dissolved in saline and prepared at a concentration of 0.0125 mg/ml and given intraperitoneally (i.p.) at a dosage volume of 20 ml/kg to yield a dose of 0.25 mg/kg ([…]).
Four to five weeks old male CD-1 mice (Janvier; Le Genest St Isle - France) were used for the study.
LPS was injected i.p. 2 weeks prior the T-maze trial. Compound 1a was tested at doses of 0.5, 2, 8, 16, and 32 mg/kg administered orally (p.o.) for 14 days with last treatment given 60 min before the T-maze trial. Compound 5a was tested at the doses of 1.25, 2.5, 5, 10, and 20 mg/kg administered orally (p.o.) for 14 days with last treatment given 60 min before the T-maze trial. LPS was injected i.p. 2 weeks prior the T-maze trial.
The T-maze apparatus was made of gray Plexiglas with a main stem (55 cm long×10 cm wide×20 cm high) and two arms (30 cm long×10 cm wide×20 cm high) positioned at a 90-degree angle relative to the main stem. A start box (15 cm long×10 cm wide) was separated from the main stem by a guillotine door. Horizontal doors were also provided to close specific arms during the force choice alternation task.
The experimental protocol consisted of a single session, which started with one “forced-choice” trial, followed by 14 “free-choice” trials. In the “forced-choice” trial, the animal was confined 5 seconds in the start arm and was then released while either the left or right goal arm was blocked by a horizontal door. […]

Test [3] concerns Rat primary cortical neuron cultures. As to the kind of experiment: Neuroprotection of rat primary cortical neurons against neurotoxic insults (Cell Titer-Glo viability). The class given is cell-based. Particulars: for Statistical significance vs. insult control (cell viability): Positive Control MK-801 (1 uM). The source says: HGF/MET signaling activation is expected to protect cells, including neurons, from cell death. […] Hydrogen peroxide (H2O2) treatment produces toxic oxidative stress. Bacteria-derived lipopolysaccharide (LPS) treatment induces inflammatory cell death. Treatment with excess glutamate (Glut) produces excitotoxicity in neuron cultures. Treatment with 1-methyl-4-phenylpyridinium (MPP^+) causes cell death by inhibition of mitochondrial function.
Cells were then subjected to individual conditional insults for 24 hours at the following concentrations: H2O2 at 1 uM, LPS at 1 uM, glutamate at 25 uM, or MPP+ at 500 uM. All treatments contained recombinant human HGF (R&D Systems) at a concentration of 5 ng/ml. MK-801 (Dizocilpine) is a pore blocker of the N-Methyl-D-aspartate (NMDA) receptor, a glutamate receptor, and was used as a positive control.
Data was normalized to DMSO+HGF control set at 100% cell viability.
Data are reported as statistical significance vs. insult control, with NS=not significant, +=p<0.05, ++=p<0.01, and +++=p<0.001.
In general terms: In ATP-based viability assays light output follows the ATP content of the culture.

Setting [4] is: 2 months of treatment, doses as in the value.
[5] abbreviates: insult alone 24 h (H2O2 1 uM, Glutamate 25 uM, LPS 1 uM, MPP+ 500 uM), Compound 1a study, Table 2.
Setting [6] is: insult alone (H2O2 1 uM, Glutamate 25 uM, LPS 1 uM, MPP+ 500 uM), A19 active metabolite study, Table 3.

In the case of `CCC(C)CN1CC2N(C(=O)c3ccc(OC(F)F)cc3)CCC(=O)N2[C@@H](C)C1=O` (some centres unmarked) [Compound 2a], the “Significance of neuroprotection vs 1 uM LPS” value in test [1] (dose 0.1 nM), in test [1] (dose 1 nM), in test [1] (dose 10 nM), in test [1] (dose 100 nM) and in test [1] (dose 1 μM) was “+++ (+++ indicates p<0.001)” each time. Moreover, the “Protection of primary neurons from LPS-stimulated inflammatory toxicity (in words)” value in test [2] is on record as “protected primary neurons from LPS-stimulated inflammatory toxicity”.
Regarding `CCCCCC(=O)NC(Cc1ccc(OP(=O)(O)O)cc1)C(=O)NC(C(=O)NCCCCCC(N)=O)C(C)CC` (centres unmarked) [Compound A19] (Hexanoyl-[pY]-Ile-[Ahx]-NH2; configuration not given here), the “Significant decrease in plasma cytokine expression after 2 months of treatment: IL-6” value in the test on Prp-TDP43^A315T mice (0.005 mg/kg SC daily) is listed as “++++ (++++ = p < 0.0001)”; in the test on Prp-TDP43^A315T mice (0.03 mg/kg SC daily), “+ (+ = p < 0.05)”. The entries for the “Significant decrease in plasma cytokine expression after 2 months of treatment: TNF-α” value in the test with Prp-TDP43^A315T mice (0.005 mg/kg SC daily) and with Prp-TDP43^A315T mice (0.01 mg/kg SC daily) were “++++ (++++ = p < 0.0001)” and “+ (+ = p < 0.05)”, respectively. Besides, the “Plasma IL-6 expression (result in words)” value in the test on Prp-TDP43^A315T mice (setting [4]) is “significantly reduced TL-6 expression at doses of 0.005, 0.01, and 0.03 mg/kg”. The “Plasma TNF-α expression (result in words)” value in the test with Prp-TDP43^A315T mice (setting [4]) is “significantly reduced TNF-α expression at 0.005 and 0.01 mg/kg”. Besides, the “Spontaneous alternation (%) Mean” value with male CD-1 mice (A19 0.125 mg/kg s.c. daily 14 days, 0.125 mg/kg) is 42% and 42.1%; in the test on male CD-1 mice (A19 0.25 mg/kg s.c. daily 14 days, 0.25 mg/kg) it was 60%; with male CD-1 mice (A19 0.5 mg/kg s.c. daily 14 days, 0.5 mg/kg) it was 64% and 64.3%; with male CD-1 mice (A19 1 mg/kg s.c. daily 14 days, 1 mg/kg), 61% and 60.7%; with male CD-1 mice (A19 1.25 mg/kg s.c. daily 14 days, 1.25 mg/kg), 61% and 60.7%. Besides, the “Recovery (%)” value in the test on male CD-1 mice (A19 0.125 mg/kg s.c., 0.125 mg/kg) is -12%; in the test on male CD-1 mice (A19 0.25 mg/kg s.c.) it was 62%; in the test with male CD-1 mice (A19 0.5 mg/kg s.c.), 79%; with male CD-1 mice (A19 1 mg/kg s.c.) it was 65%; in the test with male CD-1 mice (A19 1.25 mg/kg s.c., 1.25 mg/kg), 58%. In addition, in the test with male CD-1 mice, the “Reversal of LPS-induced cognitive deficit in T-maze (result in words)” value was “significant at all doses except at 0.125 mg/kg; also recorded: reversed the LPS-induced cognitive disruption”.
With `OO` [Compound H2O2, Hydrogen peroxide, reference compound], the “Insult effect (% viability vs vehicle)” value was 64.23% in test [3] (setting [5]) and 59.35% in test [3] (setting [6]).
In the same order, the values of `N[C@@H](CCC(=O)O)C(=O)O` [Glutamate, glutamate, reference compound] are 49.55% and 54.4%.
In the case of `C[C@]12N[C@H](Cc3ccccc31)c1ccccc12` [MK-801, Dizocilpine, reference compound], the “Statistical significance vs. insult control (cell viability)” value in test [3] (Glutamate (25 uM) insult), in test [3] (H2O2 (1 uM) insult), in test [3] (LPS (1 uM) insult) and in test [3] (MPP+ (500 uM) insult) was “+++ (+++=p<0.001)” each time.
For the compound `C[n+]1ccc(-c2ccccc2)cc1` [MPP+, 1-methyl-4-phenylpyridinium, reference compound], the “Insult effect (% viability vs vehicle)” value in test [3] (setting [5]) is recorded as 49.85%; in test [3] (setting [6]) it was 54.3%.
On to `CC12CC3CC(C)(C1)CC(N)(C3)C2` [Memantine, reference compound], for which the “Reversal of LPS-induced cognitive deficit in T-maze (result in words)” value with male CD-1 mice is on record as “significant at both doses”. The “Spontaneous alternation (%) Mean” value with male CD-1 mice (Memantine 0.1 mg/kg i.p. daily 14 days) was 64% and 63.6%; with male CD-1 mice (Memantine 1 mg/kg i.p. daily 14 days), 54% and 54.3%. Further, the “Recovery (%)” value is 76% with male CD-1 mice (Memantine 0.1 mg/kg i.p.) and 38% in the test with male CD-1 mice (Memantine 1 mg/kg i.p.).
